Laboratory results from paper PMC6309430 (Journal of pharmaceutical sciences, 2017).
Like-named read-outs stand apart in the source and are kept apart here.

Key:
[1] = molecular target: T1, P-glycoprotein (Pgp; Abcb1a, MDR3) (Mus musculus, UniProt P21447); assay: intrinsic protein; format: binding
[2] = molecular target: T1, P-glycoprotein (Pgp; Abcb1a, MDR3); assay: intrinsic protein; format: binding; remark: listed apart in the source

T1 sequence (P21447 whole entry): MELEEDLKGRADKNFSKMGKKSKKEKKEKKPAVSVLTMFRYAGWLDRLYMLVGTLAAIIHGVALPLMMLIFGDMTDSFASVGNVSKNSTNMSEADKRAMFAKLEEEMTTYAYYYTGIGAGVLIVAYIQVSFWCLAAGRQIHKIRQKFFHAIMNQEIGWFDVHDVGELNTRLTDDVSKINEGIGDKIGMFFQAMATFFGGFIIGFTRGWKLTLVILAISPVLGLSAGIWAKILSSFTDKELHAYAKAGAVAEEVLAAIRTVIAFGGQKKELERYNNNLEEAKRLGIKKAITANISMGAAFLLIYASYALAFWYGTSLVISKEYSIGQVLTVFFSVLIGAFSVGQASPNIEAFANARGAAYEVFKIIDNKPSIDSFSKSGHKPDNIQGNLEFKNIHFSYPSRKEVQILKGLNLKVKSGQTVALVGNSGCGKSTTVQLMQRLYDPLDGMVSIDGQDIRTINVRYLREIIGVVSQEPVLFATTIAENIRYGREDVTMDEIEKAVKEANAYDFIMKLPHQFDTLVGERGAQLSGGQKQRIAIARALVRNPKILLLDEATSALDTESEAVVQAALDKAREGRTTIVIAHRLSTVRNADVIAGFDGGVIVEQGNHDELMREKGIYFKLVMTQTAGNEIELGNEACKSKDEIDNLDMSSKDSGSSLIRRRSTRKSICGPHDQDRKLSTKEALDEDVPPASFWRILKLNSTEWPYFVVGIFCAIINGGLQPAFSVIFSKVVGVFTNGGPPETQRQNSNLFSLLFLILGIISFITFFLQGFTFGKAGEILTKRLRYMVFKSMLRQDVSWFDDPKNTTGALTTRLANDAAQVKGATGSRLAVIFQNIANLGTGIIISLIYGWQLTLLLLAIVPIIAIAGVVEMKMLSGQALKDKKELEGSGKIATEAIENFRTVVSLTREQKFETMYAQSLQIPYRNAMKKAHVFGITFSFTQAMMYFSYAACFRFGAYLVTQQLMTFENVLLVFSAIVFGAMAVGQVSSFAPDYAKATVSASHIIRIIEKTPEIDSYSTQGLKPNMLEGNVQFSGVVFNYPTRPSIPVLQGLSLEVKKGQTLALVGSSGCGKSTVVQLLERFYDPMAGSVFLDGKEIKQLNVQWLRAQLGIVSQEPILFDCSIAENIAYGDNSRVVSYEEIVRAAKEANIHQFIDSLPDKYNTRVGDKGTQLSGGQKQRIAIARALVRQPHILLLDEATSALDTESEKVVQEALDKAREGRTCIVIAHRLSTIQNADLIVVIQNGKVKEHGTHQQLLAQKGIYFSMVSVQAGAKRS

Row | Structure (SMILES) | Kd [1] [µM] | Kd [2] [µM]
1 | CN1CCC[C@@H]1Cc1c[nH]c2ccc(CCS(=O)(=O)c3ccccc3)cc12 [ETT, eletriptan] | 115 ± 10 | –
2 | CNS(=O)(=O)Cc1ccc2[nH]cc(CCN(C)C)c2c1 [STT, sumatriptan] | – | 92.6 ± 25
